Experimental data: patent publication US8481459B2, “Chemical inhibitors of ethylene biosynthesis” (Academia Sinica, priority 2010, dated 2013)

System: gene expression in etiolated eto1-4 seedlings
Test: Transcriptional profiling (ATH1 GeneChip microarray) of etiolated eto1-4 seedlings
Assay type: in vivo, Arabidopsis thaliana
Description: For chemical treatments, seeds were sown on 0.5×MS agar medium supplemented with 10 μM chemicals (AVG, compounds 9393, 9370, and 7303) or DMSO (as control). Arabidopsis seeds were stratified in the dark at 4° C. for 4 days, then germinated in the dark for 3 days at 22° C. Approximately 2,000 etiolated seedlings of the wild type or eto1-4 were used to collect tissues for preparation of total RNA in each microarray experiment with Arabidopsis ATH1 GeneChip (Affymetrix). Extraction of RNA followed an established protocol (Chang, et al. (1993) Plant Mol. Biol. Rep. 11, 113-117). Total RNA (10 μg) was used to prepare biotinylated cRNA for hybridization to ATH1 GeneChip in the experiments disclosed herein. Experiments were repeated by 2 independent biological duplicates, and candidate genes present in both experiments were selected for further analysis. The MASS method was used for data analysis and normalization by all sample medium. Candidate genes were selected by the following criteria. First, genes with 1.5-fold differential expression between the wild type and eto1-4 were selected as the master gene pool, which was then used for comparison in treatments with AVG and individual exemplary compounds. Data were presented in hierarchical clustering and Venn diagram format. Agilent GeneSpring GX and Bioconductor software were used to analyze the expression profile data. Gene Ontology descriptions were generated by GeneSpring GX and further referred to the TAR GO database. Raw data are available in the GEO database (http://www.ncbi.nlm.nih.gov/geo) with Accession no. GSE20897.
The filtered and normalized expression data set from 22810 probes on the ATH1 Genechip was used for hierarchical clustering of gene expression profiles for comparison between AVG and the exemplary invention compounds in eto1-4. It was identified that 1,446 genes show at least 1.5-fold difference in expression between the WT and eto1-4 and used them as the master gene pool for clustering analysis (FIG. 7A). […] These genes likely contribute to the etiolated phenotype of eto1-4 by responding to elevated endogenous ethylene. To determine whether the exemplary compounds have specific r overlapping functions with AVG to suppress the eto1-4 phenotype, genes that are regulated by individual exemplary invention compounds and AVG for Venn diagram analysis were clustered (FIG. 7B). More than 63% of genes (356/561 for compound 9393; 389/561 for compound 9370; 399/561 for compound 7303; FIG. 7B) with expression associated with AVG were co-regulated by the exemplary invention compounds, which indicates an overlap function in suppression of the ethylene phenotype in eto1-4. […] Next genes co-regulated by all of the exemplary invention compounds and AVG were examined by performing a clustering analysis using the co-regulated genes identified in FIG. 7B: 356 (compound 9393 vs AVG), 389 (compound 9370 vs AVG) and 399 genes (compound 7303 vs AVG). It was uncovered that 276 genes were co-regulated by all of the exemplary invention compounds and AVG (FIG. 7C and Table 2). On the basis of GO descriptions generated by Gene Spring GX and TAIR database, the 276 genes were divided into subgroups related to their biological functions (Table 2). […] In addition, stress- and pathogenesis-related genes were among the co-regulated genes, possibly because ethylene is involved in both biotic and abiotic stresses.
Genes (1446 non-redundant loci) were selected by 1.5-fold differential expression between eto1-4 and WT as the master pool for analysis. These genes were used for comparison between chemical treatments by AVG and the exemplary invention compounds. The finalized 276 genes that are co-regulated by AVG and all of the exemplary invention compounds are shown. Locus ID also present in Nemhauser et al. (Nemhauser, et al. (2006) Cell 126, 467-475).

[1] = of 1446 genes differentially expressed between WT and eto1-4, 10 μM
[2] = ratio eto1-4 treated to eto1-4 (no treatment)

CC1(C)CC(=O)c2cnc(NC3CCCC3)nc2C1 [Compound 9393]
number of genes co-regulated with AVG (of 561 genes associated with AVG, 10 μM): 356 genes | number of genes regulated (expression reverted close to WT) [1]: 629 genes | percentage of genes regulated (expression reverted close to WT) [1]: 43.5% | number of genes regulated specifically, not related to AVG treatment (of all genes regulated by the compound (629, 728, 650), 10 μM): 273 genes | Signal Fold Change AT1G03457, unknown biological function [2]: 2.24 | Signal Fold Change AT1G03660, unknown biological function [2]: 1.84 | Signal Fold Change AT1G05010 ACC oxidase [2]: 0.28 | Signal Fold Change AT1G05760 jacalin lectin protein [2]: 2.69 | Signal Fold Change AT1G06720 expressed protein [2]: 1.15 | Signal Fold Change AT1G07280, unknown biological function [2]: 0.44 | Signal Fold Change AT1G07560 leucine-rich repeat protein kinase [2]: 2.23 | Signal Fold Change AT1G08650 phosphoenolpyruvate carboxylase kinase [2]: 1.96 | Signal Fold Change AT1G08990 glycogenin glucosyltransferase [2]: 1.61 | Signal Fold Change AT1G09530 phytochrome interacting factor 3 [2]: 0.35 | Signal Fold Change AT1G10760 starch excess protein (SEX1) [2]: 0.46 | Signal Fold Change AT1G13430, response to cytokinin stimulus, sulfotransferase protein [2]: 0.38 | Signal Fold Change AT1G14540 anionic peroxidase [2]: 0.46 | Signal Fold Change AT1G15380 lactoylglutathione lyase [2]: 1.96 | Signal Fold Change AT1G17970, unknown biological function [2]: 2.17 | Signal Fold Change AT1G18880 proton-dependent oligopeptide transport (POT) protein [2]: 2.00 | Signal Fold Change AT1G20190, cell wall organization and biogenesis, expansin (EXP11) [2]: 0.43 | Signal Fold Change AT1G22740 Ras-related protein (RAB7) [2]: 2.34 | Signal Fold Change AT1G23060, unknown biological function [2]: 0.40 | Signal Fold Change AT1G26930, unknown biological function [2]: 0.50 | Signal Fold Change AT1G27380 p21-rho-binding domain-containing protein [2]: 2.10 | Signal Fold Change AT1G29520, unknown biological function [2]: 1.83 | Signal Fold Change AT1G30750, unknown biological function [2]: 2.23 | Signal Fold Change AT1G31710 copper amine oxidase [2]: 3.17 | Signal Fold Change AT1G32410 vacuolar protein sorting 55 protein [2]: 1.62 | Signal Fold Change AT1G32560 late embryogenesis abundant group 1 domain-containing protein [2]: 1.35 | Signal Fold Change AT1G33470, unknown biological function [2]: 2.32 | Signal Fold Change AT1G33790, unknown biological function [2]: 0.20 | Signal Fold Change AT1G34040, unknown biological function [2]: 1.69 | Signal Fold Change AT1G35350, unknown biological function [2]: 3.85 | Signal Fold Change AT1G35612, unknown biological function [2]: 3.38 | Signal Fold Change AT1G42470, unknown biological function [2]: 4.11 | Signal Fold Change AT1G44800, unknown biological function [2]: 1.86 | Signal Fold Change AT1G44830 AP2-containing transcription factor [2]: 0.34 | Signal Fold Change AT1G48480 leucine-rich repeat trans-membrane protein kinase [2]: 2.65 | Signal Fold Change AT1G49660 expressed protein [2]: 0.38 | Signal Fold Change AT1G50560 cytochrome P450 [2]: 1.77 | Signal Fold Change AT1G52830 auxin-responsive protein [2]: 3.44 | Signal Fold Change AT1G56010 transcription activator NAC1 [2]: 2.29 | Signal Fold Change AT1G56020, unknown biological function [2]: 0.60 | Signal Fold Change AT1G58070, unknown biological function [2]: 2.13 | Signal Fold Change AT1G59590, unknown biological function [2]: 2.57 | Signal Fold Change AT1G59740 proton-dependent oligopeptide transport (POT) protein [2]: 0.46 | Signal Fold Change AT1G62290 aspartyl protease protein [2]: 0.32 | Signal Fold Change AT1G62510 lipid transfer protein [2]: 1.63 | Signal Fold Change AT1G62620, unknown biological function [2]: 2.65 | Signal Fold Change AT1G64200 V-ATPase E subunit [2]: 2.10 | Signal Fold Change AT1G65510, unknown biological function [2]: 2.13 | Signal Fold Change AT1G65920, unknown biological function [2]: 0.37 | Signal Fold Change AT1G66230 myb transcription factor (MYB20) [2]: 3.04 | Signal Fold Change AT1G67030 zinc finger (C2H2 type) protein [2]: 6.01 | Signal Fold Change AT1G68230, unknown biological function [2]: 2.42 | Signal Fold Change AT1G68520 zinc finger (B-box type) protein [2]: 2.45 | Signal Fold Change AT1G69570 Dof-type zinc finger-containing protein [2]: 3.88 | Signal Fold Change AT1G70210 cyclin delta-1 [2]: 3.05 | Signal Fold Change AT1G70850 Bet v I allergen protein [2]: 7.24 | Signal Fold Change AT1G70890 major latex protein [2]: 5.37 | Signal Fold Change AT1G71030 myb transcription factor (MYB2) [2]: 4.86 | Signal Fold Change AT1G71740, unknown biological function [2]: 2.19 | Signal Fold Change AT1G72230 plastocyanin like protein [2]: 2.45 | Signal Fold Change AT1G73220 sugar transporter protein [2]: 2.95 | Signal Fold Change AT1G73300 serine carboxypeptidase S10 protein [2]: 1.94 | Signal Fold Change AT1G73310 serine carboxypeptidase S10 protein [2]: 2.66 | Signal Fold Change AT1G73330 protease inhibitor [2]: 2.84 | Signal Fold Change AT1G73590 auxin efflux carrier protein [2]: 2.02 | Signal Fold Change AT1G73640, small GTPase mediated signal transduction, Ras-related GTP-binding protein [2]: 1.94 | Signal Fold Change AT1G73830 bHLH protein [2]: 0.28 | Signal Fold Change AT1G75500, unknown biological function [2]: 3.12 | Signal Fold Change AT1G76220, unknown biological function [2]: 3.40 | Signal Fold Change AT1G76500, photomorphogenesis, DNA-binding protein [2]: 0.39 | Signal Fold Change AT1G76540 cell division control protein [2]: 2.16 | Signal Fold Change AT1G76790, unknown biological function [2]: 2.90 | Signal Fold Change AT1G78240 dehydration-responsive protein [2]: 0.49 | Signal Fold Change AT1G80380 phosphoribulokinase [2]: 2.17 | Signal Fold Change AT2G01910, microtubule nucleation, microtubule associated protein (MAP65/ASE1) protein [2]: 2.21 | Signal Fold Change AT2G02820 myb transcription factor (MYB88) [2]: 3.34 | Signal Fold Change AT2G02850 plantacyanin [2]: 0.27 | Signal Fold Change AT2G16580 auxin-responsive protein [2]: 2.33 | Signal Fold Change AT2G16990, unknown biological function [2]: 2.49 | Signal Fold Change AT2G19590 ACC oxidase [2]: 0.29 | Signal Fold Change AT2G19970, unknown biological function [2]: 2.19 | Signal Fold Change AT2G20080, unknown biological function [2]: 4.77 | Signal Fold Change AT2G20670, unknown biological function [2]: 2.36 | Signal Fold Change AT2G21820, unknown biological function [2]: 1.08 | Signal Fold Change AT2G21880 Ras-related GTP-binding protein [2]: 3.83 | Signal Fold Change AT2G22860 phytosulfokines 2 (PSK2) [2]: 2.20 | Signal Fold Change AT2G24150 expressed protein (response to hormone stimulus) [2]: 2.23 | Signal Fold Change AT2G25900 zinc finger (CCCH-type) protein [2]: 1.27 | Signal Fold Change AT2G26070 expressed protein (response to ethylene stimulus) [2]: 0.32 | Signal Fold Change AT2G26440 pectinesterase protein [2]: 0.36 | Signal Fold Change AT2G26740 epoxide hydrolase [2]: 0.29 | Signal Fold Change AT2G27140 heat shock protein [2]: 2.32 | Signal Fold Change AT2G27370, unknown biological function [2]: 1.90 | Signal Fold Change AT2G28305, unknown biological function [2]: 2.70 | Signal Fold Change AT2G28410, unknown biological function [2]: 2.86 | Signal Fold Change AT2G29340 short-chain dehydrogenase [2]: 0.47 | Signal Fold Change AT2G29440, toxin catabolic process, glutathione S-transferase [2]: 0.31 | Signal Fold Change AT2G30360 CBL-interacting protein kinase 11 (CIPK11) [2]: 1.81 | Signal Fold Change AT2G33380 calcium-binding RD20 protein [2]: 0.26 | Signal Fold Change AT2G33990, unknown biological function [2]: 2.38 | Signal Fold Change AT2G34300, unknown biological function [2]: 0.40 | Signal Fold Change AT2G34500 cytochrome P450 [2]: 3.82 | Signal Fold Change AT2G34510, unknown biological function [2]: 2.66 | Signal Fold Change AT2G34700, unknown biological function [2]: 1.10 | Signal Fold Change AT2G35300 late embryogenesis abundant group 1 domain-containing protein [2]: 1.93 | Signal Fold Change AT2G35710 glycogenin glucosyltransferase [2]: 2.39 | Signal Fold Change AT2G36350 protein kinase [2]: 0.54 | Signal Fold Change AT2G36410, unknown biological function [2]: 2.46 | Signal Fold Change AT2G37130 peroxidase 21 [2]: 1.93 | Signal Fold Change AT2G38760, unknown biological function [2]: 2.89 | Signal Fold Change AT2G38790, unknown biological function [2]: 1.78 | Signal Fold Change AT2G39010 aquaporin [2]: 1.84 | Signal Fold Change AT2G39310, unknown biological function [2]: 1.97 | Signal Fold Change AT2G39980, unknown biological function [2]: 0.14 | Signal Fold Change AT2G40420 amino acid transporter [2]: 1.87 | Signal Fold Change AT2G41090, unknown biological function [2]: 0.26 | Signal Fold Change AT2G41230, unknown biological function [2]: 0.08 | Signal Fold Change AT2G42320, unknown biological function [2]: 0.55 | Signal Fold Change AT2G43050 pectinesterase protein [2]: 2.06 | Signal Fold Change AT2G43535 trypsin inhibitor [2]: 4.42 | Signal Fold Change AT2G44110 seven transmembrane MLO protein [2]: 0.45 | Signal Fold Change AT2G44130 kelch repeat containing F-box protein [2]: 3.36 | Signal Fold Change AT2G47510 fumarate hydratase [2]: 0.53 | Signal Fold Change AT2G47550 pectinesterase protein [2]: 0.39 | Signal Fold Change AT2G48030, unknown biological function [2]: 2.18 | Signal Fold Change AT3G04010 glycosyl hydrolase [2]: 2.09 | Signal Fold Change AT3G05990, signal transduction, phosphodiesterase leucine-rich repeat protein [2]: 2.05 | Signal Fold Change AT3G09020, unknown biological function [2]: 2.36 | Signal Fold Change AT3G09780 protein kinase [2]: 0.55 | Signal Fold Change AT3G10080, unknown biological function [2]: 2.22 | Signal Fold Change AT3G10340 phenylalanine ammonia-lyase [2]: 2.17 | Signal Fold Change AT3G11550, unknown biological function [2]: 2.20 | Signal Fold Change AT3G12030, DNA repair, expressed protein [2]: 1.73 | Signal Fold Change AT3G12500 basic endocexemplary inase [2]: 1.85 | Signal Fold Change AT3G13980, unknown biological function [2]: 6.83 | Signal Fold Change AT3G14370 protein kinase [2]: 0.30
